“Also recorded” adds a separate entry of the source.
Columns and labels:
[1] = tested on: newborn infants; settings: newborn infants or heart surgery using deep hypothermic circulatory arrest; cited from earlier work
[2] = tested on: secondary edema following focal hypoxic-ischemic insult; settings: experimental animal models; cited from earlier work
[3] = intraperitoneal and subcutaneous injections; cited from earlier work
[4] = tested on: gap junction coupling in hippocampal slice cultures; test: Fluorescence recovery after photobleaching (FRAP) in CA1 fields of hippocampal slice cultures; assay type: cell-based, Sprague-Dawley rat; design: dose or concentration left out as unconfirmed
Procedure: Fluorescence recovery in CA1 fields of hippocampal slice cultures was evaluated as in Wade et al., 1986. Hippocampal slice cultures were loaded by 45 min application of carboxyfluorescein diacetate (30 μM). CA1 fields of view were photobleached for 2 min using the 488 nm laser line of a confocal microscope (Nikon RCM 8000) and images acquired at low power at 1 min intervals thereafter. Quantitative image analysis was performed using Polygon-Star software (Nikon).

[5] = tested on: neonatal rats with seizures following intrauterine HI insults; test: Behavioral and electrographic (EEG) seizures after intrauterine hypoxic-ischemia; assay type: in vivo, rat; design: ischemic pups that died: dose or concentration left out as unconfirmed; settings: for behavioral seizures following HI insults: i.p. at the onset of motor seizures; for electrographic seizures (EEG epileptiform activity): i.p., EEG 40 min after administration, one pup
Source text: Rat pups were delivered by C-section. One group was subjected to intra-uterine hypoxic-ischemia, the control group was also delivered by caesarian-section but not subjected to a period of hypoxic-ischemia.
Surviving animals in all groups were examined neuropathologically at 21 days following delivery (P21).

[6] = tested on: caspase-3; test: Western blot of activated caspase-3 in whole brain 24 hr after intrauterine HI; assay type: in vivo, rat; settings: for HI-induced increase of activated caspase-3 in whole brain: 75 mg/kg i.p. immediately after HI, 24 hr
Procedure: Protein was extracted from whole-brain 24 hr following HI and concentration determined with a BCA Protein Assay Kit (Pierce, Rockford, Ill.). Twenty-five μg protein/sample was applied per lane and separated by electrophoresis in 10% or 10-20% SDS-polyacrylamide gels (BioRad, Hercules, Calif.) and transferred to nitrocellulose membranes (Schleicher and Schuell, Keene, N.H.). Membranes were blotted […] with cleaved caspase-3 ([…]) antibody (1:700) overnight at 4° C., and then incubated in horseradish peroxidase-conjugated anti-rabbit IgG 1:1500. […] As an internal control, glyceraldehyde-3-phosphate dehydrogenase (GAPDH) was blotted with horseradish peroxidase-conjugated goat antimouse IgG at a concentration of 1:4000. Densitometriy of chemiluminescent bands was quantified using Scion Image densitometer software (NIH), and band densities normalized to GAPDH density in the same gel.

[7] = tested on: synaptic transmission in CA1 stratum radiatum of hippocampal slice cultures; test: Schaffer collateral-evoked excitatory postsynaptic potentials in slice cultures 24 hr post-HI; assay type: cell-based, Sprague-Dawley rat; settings: 75 μM, 45 min HI
Procedure: Organotypic hippocampal slice cultures were prepared from 9- to 12-day old Sprague-Dawley rat pups (Charles River, Wilmington, Del.) of both sexes (Stoppini et al., 1991). Rats were decapitated under deep ketamine anesthesia, the hippocampi rapidly dissected out and placed immediately into ice-cold dissection medium containing: 3.5 mM KCl, 0.5 mM NaH2PO4, 10 mM MgSO4, 5 mM NaHCO3, 118 mM n-methyl-D-glucosamina, 1.1 mM KH2PO4, 10 mM HEPES, 20 mM D-glucose, pH 7.35, gassed with 95% O2/5% CO2. Transverse slices of hippocampus plus entorhinal cortex were cut using a spring-loaded grid of 20 μm diameter wires spaced 400 μm apart. […]
Slice cultures were placed in an interface recording chamber between artificial cerebrospinal fluid (ACSF; perfusion rate 3 ml/min) and a humidified atmosphere of 95% O2/5% CO2. […] Extracellular excitatory postsynaptic potentials (EPSPs) were recorded (2 M NaCl-filled electrodes) in stratum radiatum and elicited by bipolar Schaffer collateral stimulation (intensities 20-200 μA), recorded using an Axopatch 200A amplifier in current-clamp mode.

[8] = tested on: CA1 pyramidal neurons in organotypic hippocampal slice cultures; assay type: cell-based, Sprague-Dawley rat
Procedure: Organotypic hippocampal slice cultures were prepared from 9- to 12-day old Sprague-Dawley rat pups (Charles River, Wilmington, Del.) of both sexes (Stoppini et al., 1991). Rats were decapitated under deep ketamine anesthesia, the hippocampi rapidly dissected out and placed immediately into ice-cold dissection medium containing: 3.5 mM KCl, 0.5 mM NaH2PO4, 10 mM MgSO4, 5 mM NaHCO3, 118 mM n-methyl-D-glucosamina, 1.1 mM KH2PO4, 10 mM HEPES, 20 mM D-glucose, pH 7.35, gassed with 95% O2/5% CO2. Transverse slices of hippocampus plus entorhinal cortex were cut using a spring-loaded grid of 20 μm diameter wires spaced 400 μm apart. Slices were immediately transferred into dissection medium, separated and placed on semi-permeable membrane tissue culture inserts (Millipore Corporation, Bedford, Mass.) in a 6-well plate, each well containing 1 ml of culture medium (50% Minimum Essential Medium, 25% Hank's balanced salt solution, 25% heat-inactivated horse serum, 13 mM HEPES, 2.5 mg/ml glucose). Cultures were maintained at 35° C. in a humidified 5% CO2 incubator and medium was changed every 2-3 days.
After 6-10 days in culture, hippocampal slice cultures were exposed to hypoxia-ischemia (HI) by transient oxygen and glucose deprivation. Slices were transferred into another six-well plate containing 1 ml of Ringermannitol glucose-free medium per well, containing 1.25 mM CaCl2, 0.9 mM MgSO4, 5.4 mM KCl, 0.44 mM KH2PO4, 137 mM NaCl, 4.2 mM NaHCO3, 0.35 mM NaH2PO4, 16.7 mM HEPES, and 27.5 mM mannitol, and placed in a hypoxic box continuously gassed with 95% N2/5% CO2 for 45 min. They were then returned to normal medium with carbon dioxide until measurement of neuronal death.
Carbenoxolone (disodium salt) was purchased from Sigma (St. Louis, Mo.), propidium iodide and carboxyfluorescein diacetate from Molecular Probes (Eugene, Oreg.). Cleaved caspase-3 antibody was purchased from Cell Signaling (Beverly, Mass.).
Media containing 1 μM PI was applied for 10 min to slices and PI-labeled dead cells imaged using […] filters. IPLab (Signal Analytics Corp.) and NIH image analysis programs were used to quantitate total fluorescence intensity for equal regions of interest within the CA1 pyramidal cell body layer (stratum pyramidale).

[9] = tested on: rat pups subjected to intrauterine hypoxic-ischemia; test: Intrauterine hypoxic-ischemia (transient global anoxia during C-section delivery): survival, growth, histopathology; assay type: in vivo; settings: for survived reperfusion / mortality: 75 mg/Kg
Procedure: Sprague Dawley fetuses were subjected to transient global anoxia during C-section delivery (Bjelke et al., 1991; Brake et al., 1997). Pregnant rats at term (21 days gestation) were decapitated, the abdomen incised, and the uterus was quickly isolated from its blood supply and surrounding fat tissue and connective tissue. Acute anoxia was induced by immersing the intact uterus containing the fetuses into 37° C. saline for 12.5-15 min. […] Blood gases and pH Samples were analyzed for blood gases and pH on a blood gas monitor (RapidLab 855, Bayer,UK).
Animals were deeply anesthetized with ketalar and perfused via a transcardiac site after which brains were removed, rinsed with saline and fixed in formaldehyde buffered to pH 7.35. Brains were cut into sagittal sections, sliced in 2 mm cross-sections (Braintree Scientific Inc, Mass.), dehydrated with a tissue processor (TP1050, Leica Instruments, Germany), embedded in paraffin, sectioned with a Leica freezing microtome, and stained with haematoxylon-eosin.
Groups were compared by ANOVA or Student's t-test, as appropriate, with group size pre-selected based on P<0.05 significance criterion.

[10] = tested on: brain damage in immature fetuses and newborn infants; settings: randomized double-blind trials; cited from earlier work
[11] = tested on: infarcts after stroke; settings: applied before the induction of stroke; cited from earlier work
[12] = i.p. to newborn rats at least 15 min after HI

## Oc1ncnc2[nH]ncc12 [Allopurinol]
[1]
  outcome in clinical trials: has not been successful
[2]
  severity of secondary edema: reduced

## CC1(C)[C@@H](OC(=O)CCC(=O)O)CC[C@]2(C)[C@H]3C(=O)C=C4[C@@H]5C[C@@](C)(C(=O)O)CC[C@]5(C)CC[C@@]4(C)[C@]3(C)CC[C@@H]12 [carbenoxolone, Carbenoxolone]
[3]
  crossing of normoxic foeto-placental and adult blood-brain barriers: has been shown to cross
[4]
  gap junction coupling in slice cultures: effective at reducing gap junction coupling
[5]
  behavioral seizures following HI insults: absence of seizures; also recorded: abolishes
  electrographic seizures (EEG epileptiform activity): loss of electrographic epileptiform activity; also recorded: abolishes
[5]; listed as Carbenoxolone
  behavioral seizures following HI insults: stopped
  electrographic seizures (EEG epileptiform activity): stopped
[5]; treated with carbenoxolone
  ischemic pups that died: One of 12
[6]
  HI-induced increase of activated caspase-3 in whole brain: largely prevented
[6]; listed as Carbenoxolone
  HI-induced increase of activated caspase-3 in whole brain: reduced the activation
[6]; 75 mg/kg i.p. immediately after perinatal HI, 24 hr post-HI, relative to HI alone
  activation of caspase-3, reduced to: 43±15%
[6]; HI+Carb, 75 mg/kg i.p., 24 hr post-HI
  caspase-3 band densities (normalized to GAPDH): 302±115
[7]
  protection against loss of synaptic transmission in CA1 stratum radiatum (EPSP): very effective
[8]
  viability or morphology of control organotypic slice cultures: did not detectably alter
[8]; 75 μM
  neuroprotection when applied in vitro: marked neuroprotection
[8]; 75 μM added 30 min prior to, during and 60 min after a 45 min HI insult, 24 hr following HI
  delayed death of CA1 pyramidal neurons assessed by PI staining intensity: markedly reduced
[8]; 75 μM, 60 min after the end of the HI episode (FIG. 2c)
  PI fluorescence 24 hr post-HI in hippocampal slice culture: reduced PI fluorescence
[9]; 4 hrs
  survived reperfusion: 76.5±9%
[9]; 4 hrs of reoxygenation/recirculation after perinatal HI
  mortality: 23.5%
[9]; 24 hrs
  survived reperfusion: 73±9.5%
[9]; 24 hrs after perinatal HI
  mortality: 27%
[9]; 48 hrs
  survived reperfusion: 70±12.5%
[9]; 48 hrs after perinatal HI
  mortality: 30%
[9]; 75 mg/kg i.p. after intrauterine HI
  cerebellar damage: preventing cerebellar damage
[9]; 75 mg/kg i.p. after intrauterine HI, n=5
  extent of histopathological damage in the hippocampus and neocortex: dramatically reduced
[9]; 75 mg/kg immediately after intrauterine HI, compared to HI alone (FIG. 3d)
  long-term development assessed by size: improves
[9]; 21 days post-HI
  survival rate: 70±12%
[9]; [12]
  crossing of the blood-brain barrier: cross the blood-brain barrier in sufficient time and concentration
  long-term damage induced by HI: markedly reduce
[9]; postnatal day 21, HI rats
  body weight: 29.2 ± 3 g

## O=S(=O)([O-])[O-].[Mg+2] [magnesium sulfate]
[10]
  protective effect against brain damage: did not provide a protective effect

## CCCCCCCCO [octanol]
[11]
  infarct size: reduced infarct size; also recorded: reduce the size of infarcts
